Patent US20240197733A1, “A GABA RECEPTOR MODULATOR FOR USE IN THE TREATMENT OF PAIN” (SANIONA A/S, priority 2021, published 2024)

Columns and labels:
[1] = system: electrocutaneous stimulation-induced facial pain rodent model; experiment: ES-induced facial pain model, cold thermal allodynia (acetone test), acute treatment; type: in vivo, Sprague-Dawley rats
Text: (§1) The electrocutaneous stimulation-induced facial pain rodent model is a reproducible orofacial pain model in which depilated cheek area of rats are repeatedly subjected to electrical stimulation. Repeated electrical stimulation at low intensities produces craniofacial pain that mimics the behavioral characteristics of TN such as development of mechanical and thermal allodynia at cheeks despite no visible edema, swelling or excessive injury and tissue damage.
(§2) Male wild type, Sprague-Dawley rats (Charles River Laboratories) born in-house at AfaSci Research Laboratory between May 24, 2020 to May 28, 2020. At approximately 3 months of age (approximately 350 g-450 g body weight) the rats were deemed suitable for the electrocutaneous stimulation-induced facial pain model. Prior to the experiment, the rats were maintained in group cages (3 rats per cage) in a controlled environment (temperature: 21.5±4.5° C./relative humidity: 35-55%) under a standard 12 h light/12 h dark lighting cycle (lights on at 06:00).
The required quantity of the compounds are weighed and dissolved in 100% DMSO in a volume amounting to 5% of the total volume while placed on a stirrer. The weight of the compounds refers to the free base weights. […]
Second baseline measurement was carried out similarly to day 1. […] For each animal, the average of the two baseline nociceptive measurements were calculated within each pain modality (mechanical, heat- and cold pain), and used as baseline (“Baseline” point on figures).
Similarly, to day 1- and 2, all rats were subjected to acclimatization to test equipment and decapicone followed by measurements of ES-induced facial mechanical- heat- and cold allodynia (“0” time point on figures). […] Compound 1, vehicle and Carbamazepine was administered perorally in doses of 1, 3, and 10 mg/kg (Compound 1) or 30 mg/kg (carbamazepine) and drug effects on pain thresholds were evaluated 2- and 4 hours after drug administration by assessment of mechanical- (von Frey) and thermal hypersensitivity (heat- and cold stimulation respectively). […]

[2] = system: electrocutaneous stimulation-induced facial pain rodent model; experiment: ES-induced facial pain model, hot thermal hyperalgesia (lamp test), prophylactic and acute treatment; type: in vivo, Sprague-Dawley rats; settings: for development of heat hyperalgesia vs vehicle: day 9 at 0 time
Procedure: Immediately following assessment of mechanical pain threshold, thermal (hot- and cold induced) pain was determined. Hot thermal pain thresholds were assessed by measuring each rat's facial withdrawal latency (seconds) in response to thermal stimulation on the depilated and stimulated rat cheek by using Yeomans' Thermal Testing Lamp with the following settings: Lamp fixed ˜7 cm above depilated left cheek of rat, Voltage regulator was set to 45V for C fiber testing. Cutoff was set at 20 seconds to avoid tissue damage. Unless stated otherwise, the same materials, methods, and provisions of Example 1 were applied to Example 2. The required quantity of the compound is weighed and dissolved in 100% DMSO in a volume amounting to 5% of the total volume while placed on a stirrer. The weight of the compounds refers to the free base weights. Once the solution becomes clear/transparent, the remaining volume of the vehicle is added (30% HPBCD prepared in MQ water) to final concentrations of 0.03, 0.1, and 0.3 mg/ml for Compound 1. The solutions are kept on a stirrer before- and during administration of the compounds to the animals. The experimenter assessing the behavioral responses to drug administration is blinded to the drug treatment to the animals. Each treatment group is coded according the scheme below: • A. Vehicle (5% DMSO+30% HPBCD): 10 ml/kg • B. Compound 1: 0.3 mg/kg • C. Compound 1: 1 mg/kg • D. Compound 1: 3 mg/kg • F. Compound 1: 3 mg/kg—acute Second baseline measurement was carried out similarly to day 1, For each animal, the average of the two baseline nociceptive measurements was calculated within each pain modality (mechanical, heat- and cold pain), and used as baseline (“Baseline” point on figures). Then all rats in the above respective group (A-D) are given treated as mentioned. Group F received vehicle treatment. Treatment is continued once daily to each group same as Day 2 All rats were treated with respective treatment as per day 3-7. After 1 hr of treatment, each rat was subjected to 1 hr of electrocutaneous stimulation at depilated cheek (0.4 mA intensity, 10 ms duration, 1 s inter-pulse interval). Similar to day 1- and 2, all rats were acclimatized to test equipment followed by measurements of ES-induced facial mechanical- heat- and cold allodynia (“0” time point on figures). After measurement of hypersensitivity threshold, rats from group A-D received the vehicle and three doses of Compound 1 as mentioned above while group F received single acute dose of 3 mg/kg of Compound 1. Treatment effects on pain thresholds were evaluated 2- and 4 hours after administration by assessing mechanical- (Von Frey) and thermal (heat and cold) withdrawal threshold.

[3] = system: electrocutaneous stimulation-induced facial pain rodent model; experiment: ES-induced facial pain model, hot thermal hyperalgesia (lamp test, selective C fiber testing), acute treatment; type: in vivo, Sprague-Dawley rats
Text: as §1, §2
The required quantity of the compounds are weighed and dissolved in 100% DMSO in a volume amounting to 5% of the total volume while placed on a stirrer. The weight of the compounds refers to the free base weights. Once the solution becomes clear/transparent, the remaining volume of the vehicle is added (30% HPBCD prepared in MQ water) to final concentrations of 0.1, 0.3, and 1 mg/ml for Compound 1 and 3 mg/ml of Carbamazepine. The solutions are kept on a stirrer before- and during administration of the compounds to the animals.
The experimenter assessing the behavioral responses to drug administration is blinded to the drug treatment to the animals. Each treatment group is coded according the scheme below: • A. Vehicle (5% DMSO+30% HPBCD): 10 ml/kg • B. Compound 1: 1 mg/kg • C. Compound 1: 3 mg/kg • D. Compound 1: 10 mg/kg • F. Carbamazepine: 30 mg/kg
Second baseline measurement was carried out similarly to day 1. Immediately following the second baseline recording, each rat received 1 hr of electrocutaneous stimulation at cheek (0.4 mA intensity, 10 ms duration, 1 s inter-pulse interval). For each animal, the average of the two baseline nociceptive measurements were calculated within each pain modality (mechanical, heat- and cold pain), and used as baseline (“Baseline” point on figures).
Similarly, to day 1- and 2, all rats were subjected to acclimatization to test equipment and decapicone followed by measurements of ES-induced facial mechanical- heat- and cold allodynia (“0” time point on figures). Based on the individual rat's mechanical- and thermal hypersensitivity, 40 rats were selected for drug testing. Compound 1, vehicle and Carbamazepine was administered perorally in doses of 1, 3, and 10 mg/kg (Compound 1) or 30 mg/kg (carbamazepine) and drug effects on pain thresholds were evaluated 2- and 4 hours after drug administration by assessment of mechanical- (von Frey) and thermal hypersensitivity (heat- and cold stimulation respectively).
Decrease in ES-induced pain threshold was evaluated 22 hours following electrical stimulation of the depilated left cheek area (between the eye and ear ridge, this is a receptive field of trigeminal nerve) of each rat and was manifested as facial withdrawal following application of Von Frey filaments for mechanical allodynia and a heat lamp and acetone test for thermal hyperalgesia and allodynia respectively. Baseline pain behaviors were measured similarly to ES-induced facial pain measurements, except that rats were not subjected to ES stimulation.
Immediately following assessment of mechanical pain threshold, thermal (hot- and cold induced) pain was determined. […]

[4] = biological target: GABAA receptors containing the a2 subunit (Homo sapiens, UniProt P18507+P47869); settings: cited from earlier work
GABAA receptors containing the a2 subunit, sequence (P47869 29-451): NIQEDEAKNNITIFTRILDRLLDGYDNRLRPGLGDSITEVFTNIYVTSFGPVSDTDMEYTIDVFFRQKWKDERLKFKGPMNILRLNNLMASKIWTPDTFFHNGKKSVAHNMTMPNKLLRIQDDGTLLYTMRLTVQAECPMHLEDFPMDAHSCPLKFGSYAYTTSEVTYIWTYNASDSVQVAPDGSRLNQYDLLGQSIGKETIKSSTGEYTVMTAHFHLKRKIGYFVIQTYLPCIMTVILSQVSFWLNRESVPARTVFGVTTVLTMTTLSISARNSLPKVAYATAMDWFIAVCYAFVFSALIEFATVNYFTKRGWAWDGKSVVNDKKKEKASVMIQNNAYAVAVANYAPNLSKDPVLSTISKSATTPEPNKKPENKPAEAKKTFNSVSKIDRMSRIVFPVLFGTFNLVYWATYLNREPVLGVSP
GABAA receptors containing the a2 subunit, sequence (P47870 25-512 partner limits assumed): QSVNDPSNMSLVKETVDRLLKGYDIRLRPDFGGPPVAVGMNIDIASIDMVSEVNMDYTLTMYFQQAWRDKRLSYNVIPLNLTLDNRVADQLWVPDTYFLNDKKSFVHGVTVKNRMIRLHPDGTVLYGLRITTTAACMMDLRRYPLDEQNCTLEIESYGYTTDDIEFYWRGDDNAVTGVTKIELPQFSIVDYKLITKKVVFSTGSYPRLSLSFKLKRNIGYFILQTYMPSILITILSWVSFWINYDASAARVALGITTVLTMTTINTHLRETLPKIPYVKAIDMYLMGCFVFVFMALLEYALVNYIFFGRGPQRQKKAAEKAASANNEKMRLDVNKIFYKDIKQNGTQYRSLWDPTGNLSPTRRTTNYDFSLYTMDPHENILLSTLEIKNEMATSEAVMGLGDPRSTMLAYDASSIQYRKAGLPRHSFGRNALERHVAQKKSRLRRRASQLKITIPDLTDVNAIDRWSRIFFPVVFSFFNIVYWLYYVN
GABAA receptors containing the a2 subunit, sequence (P18507 40-475): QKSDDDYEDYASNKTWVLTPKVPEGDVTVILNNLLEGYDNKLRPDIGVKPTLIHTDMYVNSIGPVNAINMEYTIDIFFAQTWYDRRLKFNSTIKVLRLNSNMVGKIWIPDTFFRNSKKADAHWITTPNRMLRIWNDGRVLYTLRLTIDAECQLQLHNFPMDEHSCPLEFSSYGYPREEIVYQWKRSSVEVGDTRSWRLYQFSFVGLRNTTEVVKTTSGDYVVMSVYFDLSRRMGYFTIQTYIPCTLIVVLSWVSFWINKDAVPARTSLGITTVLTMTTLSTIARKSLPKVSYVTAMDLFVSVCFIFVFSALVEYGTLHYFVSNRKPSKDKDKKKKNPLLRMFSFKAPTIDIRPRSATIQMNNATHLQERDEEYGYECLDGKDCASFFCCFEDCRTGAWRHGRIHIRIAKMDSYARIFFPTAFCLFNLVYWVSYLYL

## COc1ncc(-c2cccc(-n3cnc4cc(C(C)(C)O)cnc43)c2)c(OC)n1 [Compound 1, 2-(3-(3-(2,4-dimethoxypyrimidin-5-yl)phenyl)-3H-imidazo[4,5-b]pyridin-6-yl)propan-2-ol]
[1]; 10 mg/kg po, 2 and 4 hours of treatment, p<0.001 and p<0.0001 vs vehicle
  effect on cold pain threshold (acetone test, facial withdrawal latency) vs vehicle: significant enhancement of the cold pain threshold
[1]; po, p<0.01 after 2 and 4 hrs of dosing vs vehicle
  minimum effective dose, cold allodynia (acetone test): 3 mg/kg
[2]; acute 3 mg/kg po on day 9, p<0.0001 post 2 and 4 hrs
  effect on established heat hyperalgesia vs vehicle: reversed the heat hyperalgesia
[2]; prophylactic 0.3 mg/kg po plus additional dose on day 9, p<0.05 post 2 hrs, p<0.001 post 4 hrs
  effect on established heat hyperalgesia vs vehicle: further enhanced the analgesic effect
[2]; prophylactic 1 mg/kg po once daily for 7 days, p<0.05 vs vehicle
  development of heat hyperalgesia vs vehicle: significantly reduced the development of heat hyperalgesia
[2]; prophylactic 1 mg/kg po plus additional dose on day 9, p<0.0001 post 2 hrs and post 4 hrs
  effect on established heat hyperalgesia vs vehicle: further enhanced the analgesic effect
[2]; prophylactic 3 mg/kg po once daily for 7 days, p<0.0001 vs vehicle
  development of heat hyperalgesia vs vehicle: significantly reduced the development of heat hyperalgesia
[2]; prophylactic 3 mg/kg po plus additional dose on day 9, p<0.0001 post 2 hrs and post 4 hrs
  effect on established heat hyperalgesia vs vehicle: further enhanced the analgesic effect
[3]; 3 mg/kg po, post 2 and 4 hrs, p<0.05 and p<0.001 vs vehicle
  effect on heat thermal hyperalgesia (facial withdrawal latency) vs vehicle: significantly reversed the mechanical allodynia
[3]; 10 mg/kg po, 2 and 4 hrs post dose, p<0.0001
  effect on heat thermal hyperalgesia (facial withdrawal latency) vs vehicle: significantly produced reversal of hyperalgesia
[3]; 10 mg/kg po, highest dose tested, similar to Carbamazepine 30 mg/kg
  reversal of hyperalgesia in the thermal heat test (conclusion): full reversal of hyperalgesia
[3]; 1, 3 and 10 mg/kg po
  effect on heat thermal hyperalgesia (facial withdrawal latency), dose dependence: dose dependently reversed the heat thermal hyperalgesia
[3]; po, p<0.01 and p<0.05 vs vehicle 2 and 4 hrs post dose
  minimal effective dose, heat thermal hyperalgesia: 1 mg/kg
[4]
  positive allosteric modulation of GABAA receptors containing the a2 subunit: to a minor extent
